These results are taken from patent US10961278B2, “Vancomycin derivative, preparation method, pharmaceutical composition and use thereof” (SHANGHAI INSTITUTE OF MATERIA MEDICA, CHINESE ACADEMY OF …, priority 2016, dated 2021).

Each structure is given as a SMILES string. In brackets after ≈: the same amount, converted by molar mass. Entries after “also recorded” stand apart in the source; their conditions may differ. Some results are limits rather than exact numbers.

Data set [1] has as its system HK-2 cells (human renal proximal tubular epithelial cells). Put plainly: Kidney cytotoxicity assay (CCK8 cell viability). The data set is classed as cell-based. The conditions noted are these: HK-2 cells, 10, 50, 100 μM, 72 h. As for the experimental part: (§1) Liver and kidney cell viability assays were performed using the Cell Activity Assay Kit CCK8 (Cell Counting Kit-8) method. HK-2 cells (human renal proximal tubular epithelial cells) and HL-7702 cells (human liver cells) in logarithmic growth phase were inoculated to a 96-well culture plate at a suitable density (about 5000 cells), at 100 μL per well. […] Three replicate wells were set for each concentration, and the physiological saline vehicle control well corresponding to each concentration and a well for cell-free zero-adjustment were set. After the treatment, 10 μL of CCK8 detection solution was added into each well, the incubation was performed at 37° C. for about 1.5 h. The optical density (OD value) at 450 nm was measured on a […] microplate reader. The OD value was converted to cell viability value according to the following equation: […] wherein, ODC represents the optical density obtained by different concentrations of the compounds to be tested, C represents the concentration of the compound, and ODC=0 represents the optical density obtained without addition of the compound to be tested.

Data set [2] concerns vancomycin-middle resistant Staphylococcus aureus Mu50 strain. Put plainly: In vitro antibacterial activity assay (MIC, CLSI dilution method). In kind it is cell-based. The conditions noted are these: Staphylococcus aureus, 16 h, read-out: MIC Mu50.
Data set [3] deals with vancomycin-sensitive Staphylococcus aureus Newman strain. Described as above. The data set is classed as cell-based. The following applies: Staphylococcus aureus; S. aureus Newman, 37° C., 16 h.
Data set [4] concerns Staphylococcus aureus USA300 LAC strain (CA-MRSA). In kind it is in vivo.
Data set [5] can be described thus: In vivo pharmacokinetic assay in mice.
Data set [6] has as its system HL-7702 cells (human liver cells). Put plainly: Liver cytotoxicity assay (CCK8 cell viability). In kind it is cell-based. The following applies: HL-7702 cells, 10, 50, 100 μM, 72 h. As for the experimental part: as §1
Where [7] appears, read: male CD-1 mice, intravenous single dose 5 mg/kg.
The mark [8] stands for this setting: male, CD-1, mouse, in vivo, iv, 5 mg/kg.

`CN[C@H](CC(C)C)C(=O)N[C@H]1C(=O)N[C@@H](CC(N)=O)C(=O)N[C@H]2C(=O)N[C@H]3C(=O)N[C@H](C(=O)N[C@H](C(=O)O)c4cc(O)c(CNCCO[C@@H]5OC(CO)[C@H](O)C(O)C5O)c(O)c4-c4cc3ccc4O)[C@H](O)c3ccc(c(Cl)c3)Oc3cc2cc(c3OC2O[C@H](CO)C(O)C(O)[C@H]2O[C@@H]2CC(C)[C@@H](O)C(C)(NCc3ccc(-c4ccc(C(F)(F)F)cc4)cc3)C2)Oc2ccc(cc2Cl)[C@H]1O` (stereo partly drawn) [Van037]: the “toxicity in kidney cells” value in data set [1] was “toxicity less than vancomycin and comparable to telavancin”. For the same compound, in data set [2], the minimum inhibitory concentration (MIC) (as a rule, the lowest concentration that inhibits growth of the organism) stood at 0.25 µg/mL (≈ 0.13 µM). This compound also had an MIC in data set [3] of at most 0.0625 µg/mL. Also, the “in vivo antibacterial activity against methicillin-resistant Staphylococcus aureus, comparison with positive controls” value in data set [4] (BALB/c mice, 7 mg/kg i.p., 10 days, 7 mg/kg) is “better activity than vancomycin; also recorded: comparable activities with telavancin”. In data set [4] (female BALB/c mice, USA300 LAC retro-orbital, single dose 7 mg/kg intraperitoneally 1 h after infection, after 10 days), this compound returned a survival rate of 86.6%. In data set [5] (setting [7]), this compound showed a CL_obs of 4.42 ± 1.42 mL/min/kg and a VSS_obs of 1.077 ± 0.449 L/kg. Also, in data set [5] (setting [8]), the total exposure AUC(0-inf) (usually total exposure, with the tail of the curve extrapolated) is 20000 ± 5490 ng·h/mL; the AUC(0-t) (commonly exposure summed from dosing to a finite time, without extrapolation to infinity) came out at 16600 ± 4960 ng·h/mL; the MRT inf (as a rule, a mean duration of stay, worked out from the concentration-time curve) stood at 4.21 ± 2.08 h; the half-life – broadly, the time in which the quantity being followed falls by half – is 2.94 ± 1.39 h. The “toxicity in liver cells” value in data set [6] is “less toxicity in liver cells than vancomycin and telavancin”.
